Measured values reported in patent US20070298144A1, “Method for Protecting Bioactive Food Ingredients Using Decoy Ingredients” (COMPAGNIE GERVAIS DANONE, priority 2004, published 2007).
“And” between values parts separate entries of the source, which are not always exact repeats. Equal values may be shown once. “Also recorded” adds a separate entry of the source. Read-outs that look alike come from different tables or passages of the source. Where no end group is shown, it is not given here.

Key:
[1] = tested on: Hansen YC-380 lactic ferment; test: Fermentation of dairy mix containing DMV C12 hydrolysate (FIG. 3); design: species or system lactic bacteria; details: 1.5 g/l of DMV C12 hydrolysate, fermentation up to pH 4.7
Source text: FIG. 3: Compared peptide profiles (LC-MS/MS chromatograms) of a dairy “mix” containing 1.5 g/l of DMV C12® hydrolysate, before (1) and after (2) fermentation up to pH 4.7 by the Hansen YC-380 lactic ferment. Virtually all of the hydrolysate peptides, including the bioactive C12 peptide (αS1 [23-34] fragment), disappeared following metabolism by the ferment strains.
In addition, in order to verify that this phenomenon was not specific to Lactium®, several combinations of ferments and other ingredients containing bioactive peptides were studied by implementing the same test (reconstituted milk and an ingredient to be tested in an amount of 1.5 g/l, fermented under standard conditions, fermentation stopped at pH 4.7, two repetitions).

[2] = In vivo animal; Migliore-Samour 1988; cited from earlier work
platelet aggregation = details: In vitro; Jollès 1986; Raha 1988; cited from earlier work
[3] = tested on: experimental arterial thrombosis; details: Rat and guinea pig with experimental arterial thrombosis; after IV injection; Drouet 1990; cited from earlier work
[4] = tested on: mouse peritoneal macrophages; details: In vitro; Parker 1996; cited from earlier work
arterial pressure [5] = details: Hypertensive rats; after ingestion; Nakamura 1995; cited from earlier work
arterial pressure [6] = details: Normal rats; Nakamura 1995; cited from earlier work
arterial pressure [7] = details: Hypertensive humans (36 subjects); 8 weeks of ingestion of 95 ml/d; Hata 1996; cited from earlier work
Staphylococcus aureus = details: Mouse, sheep; IM injection; Lahov 1996; cited from earlier work
[8] = tested on: ferment consisting of a mixture of the strains I-2783, I-2774, I-2835 and I-1968, or YC-380; test: Fermentation of dairy mix supplemented with Lactium; residual peptides by HPLC-MS/MS; design: species or system lactic bacteria; details: 1.5 g/l Lactium added before fermentation; four-strain ferment or YC-380; to pH 4.70
Procedure: The medium was prepared by hydration of powdered skim milk to 120 g/l, supplemented with 1.5 g/l of Lactium® (corresponding to approximately 30 mg/l of the bioactive αS1 [91-100] peptide), then pasteurized at 95° C. for 8 minutes.
The lactic ferment was added in a proportion of 0.02% and fermentation was carried out at the optimal temperature for the selected ferment (37-42° C.) until a pH of 4.70 was reached.
After centrifugation, the supernatant constituted the representative sample of the peptide content of the fermented medium. • Said sample was injected into an Agilent 1100 HPLC system (Agilent Technologies France, 1 rue Galvani, 91745 Massy Cedex, France), equipped with a Waters Symetry® column suitable for peptide analysis (5 μm, 2.1×150 mm, WAT056975, Waters France, 5, rue Jacques Monod, 78280 Guyancourt) at a temperature of 40° C. and a flow rate of 0.25 ml/min. […] For example, the αS1 [91-100] peptide was isolated from its mass (doubly charged ion of mass 634.5 Da) and quantified from the intensity of its characteristic daughter ions after fragmentation (ions for m/z=991.5 Da, 771.5 Da and 658.3 Da). […]

Lactobacillus I-1519 = test: Fermentation of Lactium milk by pure strain; details: dairy mix containing 1.5 g/l of Lactium; pure strain I-1519; stopped at pH 4.7
Procedure: (§1) After centrifugation, the supernatant constituted the representative sample of the peptide content of the fermented medium. • Said sample was injected into an Agilent 1100 HPLC system (Agilent Technologies France, 1 rue Galvani, 91745 Massy Cedex, France), equipped with a Waters Symetry® column suitable for peptide analysis (5 μm, 2.1×150 mm, WAT056975, Waters France, 5, rue Jacques Monod, 78280 Guyancourt) at a temperature of 40° C. and a flow rate of 0.25 ml/min. The peptides were eluted in a conventional way with an increasing gradient of solvent B (acetonitrile and 0.100% formic acid) in solvent A (water and 0.106% formic acid) for a period of 40 minutes to 2 hours as a function of the resolution desired. • Detection was carried out using a specific MS/MS detector, for example with an ionic trap device such as the Esquire 3000+(Bruker Daltonique, rue de l'Industrie, 67166 Wissembourg Cedex) set either for overall analysis of peptide content (MS-MS mode) or for the precise and specific quantification of a peptide from its characteristic fragments. For example, the αS1 [91-100] peptide was isolated from its mass (doubly charged ion of mass 634.5 Da) and quantified from the intensity of its characteristic daughter ions after fragmentation (ions for m/z=991.5 Da, 771.5 Da and 658.3 Da). In an even more precise manner, an internal standard comprised of the same doubly deuterated synthetic peptide (993.5 Da characteristic fragment) made it possible to take into account and to exclude potential interference related to the matrix.
(§2) In order to verify that this phenomenon was not specific to the two ferments used in paragraph 1.1) above, the principle industrial ferments, as well as various pure strains used in the composition of said ferments, were examined using the same test: milk reconstituted from powdered milk, to which Lactium® was added in an amount of 1.5 g/l, was fermented under standard conditions (optimal temperature for the ferment between 37° C. and 42° C., fermentation stopped at pH 4.7, two repetitions). Analysis of the level of bioactive αS1 [91-100] peptide was then carried out on the sample before and after fermentation.
(§3) In table 3 above, which reflects the consumption of the bioactive αS1 [91-100] peptide by various ferments and industrial strains during the fermentation of a dairy mix containing 1.5 g/l of Lactium®, the pure strains were identified by their CNCM (Pasteur Institute, Paris, France) number and deposit date.

Lactobacillus I-1632 = test: Fermentation of Lactium milk by pure strain; details: dairy mix containing 1.5 g/l of Lactium; pure strain I-1632; stopped at pH 4.7
Procedure: as §1, §2, §3

Lactobacillus I-1968 = test: Fermentation of Lactium milk by pure strain; details: dairy mix containing 1.5 g/l of Lactium; pure strain I-1968; stopped at pH 4.7
Procedure: as §1, §2, §3

Lactobacillus I-2809 = test: Fermentation of Lactium milk by pure strain; details: dairy mix containing 1.5 g/l of Lactium; pure strain I-2809; stopped at pH 4.7
Procedure: as §1, §2, §3

S. thermophilus I-1477 = test: Fermentation of Lactium milk by pure strain; details: dairy mix containing 1.5 g/l of Lactium; pure strain I-1477; stopped at pH 4.7
Procedure: as §1, §2, §3

S. thermophilus I-1630 = test: Fermentation of Lactium milk by pure strain; details: dairy mix containing 1.5 g/l of Lactium; pure strain I-1630; stopped at pH 4.7
Procedure: as §1, §2, §3

[9] = tested on: ferment containing strains I-2783, I-2774, I-2835 and I-1968; test: Peptide added after fermentation, storage at 10° C (FIG. 4); design: species or system lactic bacteria
Procedure: FIG. 4: Curves illustrating the evolution of the residual content in bioactive αS1 [91-100] peptide in a final product comprised of 95% mass fermented by the ferment containing strains I-2783, I-2774, I-2835 and I-1968 and 5% flavored sugar syrup containing the αS1 [91-100] peptide, during storage at 10° C. The experiment was comprised of four independent tests: E1, E2, E3 and E4.
A logical alternative to the procedure studied above is to introduce the functional ingredient after fermentation (“delayed differentiation” procedure), for example with the syrup used to flavor the fermented mass.

[10] = Fermented product heat treated at 75° C for 1 minute, storage at 10° C (FIG. 5); details: 75° C. for approximately 1 min; stored at 10° C. until UBD
Procedure: Since the consumption of the bioactive peptide is caused by the metabolic activity of the ferments, it may be considered useful to reduce this phenomenon by destroying all or part of the microorganisms, for example using a suitable heat treatment (thermization or pasteurization).
FIG. 5: Curves illustrating the evolution of the residual content in bioactive αS1 [91-100] peptide added after fermentation in a fermented product which was then heat treated at 75° C. for 1 minute and then stored at 10° C. until the use-by date (UBD).

## C12 peptide: bioactive C12 peptide (αS1 [23-34] fragment) of DMV C12® hydrolysate (FFVAPFPEVFGK; UniProt P02662 38-49, looked up, fragment)
[1]
  hydrolysate peptides after fermentation (LC-MS/MS peptide profile): disappeared

## Casein 63-68: Bovine β-casein, Casein 63-68 (PGPIPN; UniProt P02666 78-83, looked up, fragment)
[2]
  protection in vivo: No protection in vivo

## Casein 191-193: Bovine β-casein, Casein 191-193 (LLY; UniProt P02666 206-208, looked up, fragment)
[2]
  protection in vivo: No protection in vivo

## Human lactotransferrin tetrapeptide (39-42): Human lactotransferrin tetrapeptide (39-42) (RDSP; UniProt P02788 58-61, looked up, fragment)
Platelet aggregation
  platelet aggregation: Inhibition of platelet
[3]
  antithrombotic activity: after IV injection, antithrombotic

## Human β-casein 54-59: Human β-casein 54-59 (VEPIPY; UniProt P05814 69-74, looked up, fragment)
[4]
  sheep red blood cell phagocytosis by mouse peritoneal macrophages: Stimulation of sheep red blood

## II-Pro-Pro
Arterial pressure [5]
  arterial pressure: ingestion, decrease in arterial
Arterial pressure [6]
  arterial pressure: Normal rats: no effect
Arterial pressure [7]
  arterial pressure: decrease in arterial pressure

## Peptide 106-116 of bovine κ-casein: Peptide 106-116 of bovine κ-casein (MAIPPKKNQDK; UniProt P02668 127-137, looked up, fragment)
Platelet aggregation
  platelet aggregation: Inhibition of platelet

## RPKHPIKHQGLPQEVLNENLLRF [αS1B-casein fragment (1-23 N terminal)]
Staphylococcus aureus
  efficacy against Staphylococcus aureus: Mouse, sheep: effective via IM injection

## Val-Pro-Pro
Arterial pressure [5]
  arterial pressure: ingestion, decrease in arterial
Arterial pressure [6]
  arterial pressure: Normal rats: no effect
Arterial pressure [7]
  arterial pressure: decrease in arterial pressure

## α-lactalbumin 51-53: α-lactalbumin 51-53 (GLF; UniProt P00711 70-72, looked up, fragment)
[4]
  sheep red blood cell phagocytosis by mouse peritoneal macrophages: Stimulation of sheep red blood

## αS1 [91-100] peptide: peptide with anti-convulsive properties contained in milk protein hydrolysates, marketed by Ingredia under the name Lactium® (YLGYLEQLLR; UniProt P02662 106-115, looked up, fragment)
[8]
  bioactive αS1 [91-100] peptide consumed after fermentation: more than 95%
Lactobacillus I-1519
  % of αS1 [91-100] peptide remaining after fermentation: 0.1%
Lactobacillus I-1632
  % of αS1 [91-100] peptide remaining after fermentation: 0.2%
Lactobacillus I-1968
  % of αS1 [91-100] peptide remaining after fermentation: 1.6%
Lactobacillus I-2809
  % of αS1 [91-100] peptide remaining after fermentation: 0.4%
S. thermophilus I-1477
  % of αS1 [91-100] peptide remaining after fermentation: 0.3%
S. thermophilus I-1630
  % of αS1 [91-100] peptide remaining after fermentation: 0.3%
[9]; added cold (4° C.) after fermentation, 1.5 g of Lactium per kg of final product, storage at 10° C.
  initial quantity of active peptide left on the use-by date (UBD): 30-40%
[9]; after 10 days, fresh products whose UBD is 28 days
  αS1 [91-100] peptide disappeared during storage of the final product: 35-50% and 35-55%
[10]
  stability of αS1 [91-100] peptide in heat-treated fermented product: possible to assure the stability; also recorded: possible to preserve
